Reference: the NIST ThermoML archive (doi:10.1016/j.fluid.2014.04.002)

Test: xn = mol fraction of the nth substance listed
Details: 101 kPa, Liquid; for viscosity: Concentric cylinders viscometry; for mass density: Vibrating tube method

CCOC(=O)C(C)O (stereo not drawn) [DL-ethyl lactate] + CC(O)CO
Details | mass density [kg/m3] | viscosity [mPa·s]
288.15 K, x1 = 0.1 | 1039.89 | 49.88
288.15 K, x1 = 0.2 | 1039.87 | 30.87
288.15 K, x1 = 0.3 | 1039.88 | 21.2
288.15 K, x1 = 0.3999 | 1039.91 | 14.75
288.15 K, x1 = 0.4998 | 1039.94 | 10.62
288.15 K, x1 = 0.599 | 1039.96 | 7.616
288.15 K, x1 = 0.6999 | 1039.9 | 6.169
288.15 K, x1 = 0.7994 | 1039.72 | 4.764
288.15 K, x1 = 0.8997 | 1039.32 | 4.114
288.15 K, x1 = 1 | 1039.28 | 3.207
293.15 K, x1 = 0.1 | 1036.36 | 36.91
293.15 K, x1 = 0.2 | 1035.81 | 23.41
293.15 K, x1 = 0.3 | 1035.6 | 16.34
293.15 K, x1 = 0.3999 | 1035.44 | 11.64
293.15 K, x1 = 0.4998 | 1035.3 | 8.236
293.15 K, x1 = 0.599 | 1035.15 | 6.227
293.15 K, x1 = 0.6999 | 1034.93 | 5.098
293.15 K, x1 = 0.7994 | 1034.57 | 4.153
293.15 K, x1 = 0.8997 | 1034.01 | 3.478
293.15 K, x1 = 1 | 1033.84 | 2.75
298.15 K, x1 = 0.1 | 1032.13 | 27.72
298.15 K, x1 = 0.2 | 1031.64 | 18.11
298.15 K, x1 = 0.3 | 1031.2 | 12.87
298.15 K, x1 = 0.3999 | 1030.83 | 9.303
298.15 K, x1 = 0.4998 | 1030.52 | 6.75
298.15 K, x1 = 0.599 | 1030.23 | 5.172
298.15 K, x1 = 0.6999 | 1029.94 | 4.274
298.15 K, x1 = 0.7994 | 1029.58 | 3.521
298.15 K, x1 = 0.8997 | 1029.08 | 2.978
298.15 K, x1 = 1 | 1028.39 | 2.39
303.15 K, x1 = 0.1 | 1028.31 | 21.49
303.15 K, x1 = 0.2 | 1027.6 | 14.26
303.15 K, x1 = 0.3 | 1026.98 | 10.37
303.15 K, x1 = 0.3999 | 1026.44 | 7.605
303.15 K, x1 = 0.4998 | 1025.95 | 5.615
303.15 K, x1 = 0.599 | 1025.46 | 4.35
303.15 K, x1 = 0.6999 | 1024.89 | 3.632
303.15 K, x1 = 0.7994 | 1024.21 | 3.021
303.15 K, x1 = 0.8997 | 1023.32 | 2.582
303.15 K, x1 = 1 | 1022.92 | 2.097
308.15 K, x1 = 0.1 | 1024.23 | 16.84
308.15 K, x1 = 0.2 | 1023.36 | 11.41
308.15 K, x1 = 0.3 | 1022.6 | 8.434
308.15 K, x1 = 0.3999 | 1021.9 | 6.292
308.15 K, x1 = 0.4998 | 1021.21 | 4.739
308.15 K, x1 = 0.599 | 1020.5 | 3.704
308.15 K, x1 = 0.6999 | 1019.72 | 3.118
308.15 K, x1 = 0.7994 | 1018.88 | 2.626
308.15 K, x1 = 0.8997 | 1017.93 | 2.259
308.15 K, x1 = 1 | 1017.42 | 1.858
313.15 K, x1 = 0.1 | 1020.4 | 13.41
313.15 K, x1 = 0.2 | 1019.26 | 9.264
313.15 K, x1 = 0.3 | 1018.24 | 6.949
313.15 K, x1 = 0.3999 | 1017.32 | 5.27
313.15 K, x1 = 0.4998 | 1016.47 | 4.04
313.15 K, x1 = 0.599 | 1015.64 | 3.187
313.15 K, x1 = 0.6999 | 1014.75 | 2.706
313.15 K, x1 = 0.7994 | 1013.74 | 2.302
313.15 K, x1 = 0.8997 | 1012.53 | 1.995
313.15 K, x1 = 1 | 1011.9 | 1.658
318.15 K, x1 = 0.1 | 1016.39 | 10.83
318.15 K, x1 = 0.2 | 1015.04 | 7.619
318.15 K, x1 = 0.3 | 1013.82 | 5.804
318.15 K, x1 = 0.3999 | 1012.72 | 4.465
318.15 K, x1 = 0.4998 | 1011.69 | 3.482
318.15 K, x1 = 0.599 | 1010.69 | 2.767
318.15 K, x1 = 0.6999 | 1009.63 | 2.368
318.15 K, x1 = 0.7994 | 1008.46 | 2.034
318.15 K, x1 = 0.8997 | 1007.1 | 1.774
318.15 K, x1 = 1 | 1006.36 | 1.491
323.15 K, x1 = 0.1 | 1012.34 | 8.86
323.15 K, x1 = 0.2 | 1010.78 | 6.34
323.15 K, x1 = 0.3 | 1009.36 | 4.904
323.15 K, x1 = 0.3999 | 1008.08 | 3.824
323.15 K, x1 = 0.4998 | 1006.88 | 3.03
323.15 K, x1 = 0.599 | 1005.71 | 2.423
323.15 K, x1 = 0.6999 | 1004.48 | 2.09
323.15 K, x1 = 0.7994 | 1003.15 | 1.81
323.15 K, x1 = 0.8997 | 1001.64 | 1.589
323.15 K, x1 = 1 | 1000.79 | 1.349

CCOC(=O)C(C)O (stereo not drawn) [DL-ethyl lactate] + OCCCO
Details | mass density [kg/m3] | viscosity [mPa·s]
288.15 K, x1 = 0.1001 | 1056.19 | 51.26
288.15 K, x1 = 0.2001 | 1055.73 | 38.55
288.15 K, x1 = 0.3 | 1054.58 | 28.06
288.15 K, x1 = 0.3998 | 1053.41 | 20.15
288.15 K, x1 = 0.4996 | 1051.81 | 14.63
288.15 K, x1 = 0.5997 | 1049.85 | 10.55
288.15 K, x1 = 0.7 | 1047.67 | 7.714
288.15 K, x1 = 0.8 | 1045.16 | 5.639
288.15 K, x1 = 0.8997 | 1042.56 | 4.327
288.15 K, x1 = 1 | 1039.28 | 3.207
293.15 K, x1 = 0.1001 | 1052.84 | 40.04
293.15 K, x1 = 0.2001 | 1052.12 | 30.14
293.15 K, x1 = 0.3 | 1050.74 | 22.16
293.15 K, x1 = 0.3998 | 1049.3 | 16.06
293.15 K, x1 = 0.4996 | 1047.46 | 11.78
293.15 K, x1 = 0.5997 | 1045.28 | 8.579
293.15 K, x1 = 0.7 | 1042.88 | 6.35
293.15 K, x1 = 0.8 | 1040.14 | 4.704
293.15 K, x1 = 0.8997 | 1037.34 | 3.583
293.15 K, x1 = 1 | 1033.84 | 2.75
298.15 K, x1 = 0.1001 | 1049.47 | 31.54
298.15 K, x1 = 0.2001 | 1048.48 | 23.97
298.15 K, x1 = 0.3 | 1046.87 | 17.76
298.15 K, x1 = 0.3998 | 1045.13 | 12.92
298.15 K, x1 = 0.4996 | 1043.1 | 9.585
298.15 K, x1 = 0.5997 | 1040.69 | 7.071
298.15 K, x1 = 0.7 | 1038.07 | 5.296
298.15 K, x1 = 0.8 | 1035.11 | 3.974
298.15 K, x1 = 0.8997 | 1032.1 | 3.071
298.15 K, x1 = 1 | 1028.39 | 2.39
303.15 K, x1 = 0.1001 | 1046.08 | 25.3
303.15 K, x1 = 0.2001 | 1044.83 | 19.39
303.15 K, x1 = 0.3 | 1042.98 | 14.35
303.15 K, x1 = 0.3998 | 1041.02 | 10.58
303.15 K, x1 = 0.4996 | 1038.71 | 7.942
303.15 K, x1 = 0.5997 | 1036.07 | 5.912
303.15 K, x1 = 0.7 | 1033.23 | 4.482
303.15 K, x1 = 0.8 | 1030.05 | 3.405
303.15 K, x1 = 0.8997 | 1026.83 | 2.661
303.15 K, x1 = 1 | 1022.92 | 2.097
308.15 K, x1 = 0.1001 | 1042.68 | 20.61
308.15 K, x1 = 0.2001 | 1041.16 | 15.81
308.15 K, x1 = 0.3 | 1039.07 | 11.84
308.15 K, x1 = 0.3998 | 1036.66 | 8.791
308.15 K, x1 = 0.4996 | 1034.3 | 6.65
308.15 K, x1 = 0.5997 | 1031.42 | 5.009
308.15 K, x1 = 0.7 | 1028.37 | 3.833
308.15 K, x1 = 0.8 | 1024.96 | 2.944
308.15 K, x1 = 0.8997 | 1021.54 | 2.329
308.15 K, x1 = 1 | 1017.42 | 1.858
313.15 K, x1 = 0.1001 | 1039.25 | 16.9
313.15 K, x1 = 0.2001 | 1037.46 | 13.04
313.15 K, x1 = 0.3 | 1035.13 | 9.826
313.15 K, x1 = 0.3998 | 1032.52 | 7.365
313.15 K, x1 = 0.4996 | 1029.86 | 5.624
313.15 K, x1 = 0.5997 | 1026.75 | 4.28
313.15 K, x1 = 0.7 | 1023.48 | 3.308
313.15 K, x1 = 0.8 | 1019.84 | 2.57
313.15 K, x1 = 0.8997 | 1016.22 | 2.056
313.15 K, x1 = 1 | 1011.9 | 1.658
318.15 K, x1 = 0.1001 | 1035.8 | 14
318.15 K, x1 = 0.2001 | 1033.74 | 10.86
318.15 K, x1 = 0.3 | 1031.16 | 8.236
318.15 K, x1 = 0.3998 | 1028.33 | 6.232
318.15 K, x1 = 0.4996 | 1025.39 | 4.805
318.15 K, x1 = 0.5997 | 1022.05 | 3.691
318.15 K, x1 = 0.7 | 1018.55 | 2.883
318.15 K, x1 = 0.8 | 1014.69 | 2.263
318.15 K, x1 = 0.8997 | 1010.87 | 1.83
318.15 K, x1 = 1 | 1006.36 | 1.491
323.15 K, x1 = 0.1001 | 1032.33 | 11.78
323.15 K, x1 = 0.2001 | 1030 | 9.189
323.15 K, x1 = 0.3 | 1027.16 | 7.027
323.15 K, x1 = 0.3998 | 1024.09 | 5.361
323.15 K, x1 = 0.4996 | 1020.89 | 4.174
323.15 K, x1 = 0.5997 | 1017.32 | 3.235
323.15 K, x1 = 0.7 | 1013.6 | 2.551
323.15 K, x1 = 0.8 | 1009.51 | 2.023
323.15 K, x1 = 0.8997 | 1005.5 | 1.648
323.15 K, x1 = 1 | 1000.79 | 1.349
